# Experiment: Stability test at 60° C., addition amount of ascorbic acid at pH 8.7 (Example 5), HPLC content
# Type: physicochemical
# Conditions: for remaining calcium levofolinate content compared with the initial value (100): 60° C.
# Procedure: For the aqueous preparations obtained in (1) to (3) above, tests evaluating stability at 60° C./3 weeks were performed. The calcium levofolinate content remaining in the aqueous solution was measured using high performance liquid chromatography under the following conditions (the same were employed in the following experiments) 2 ml each of the test preparations were weighed, and 10 ml of the internal standard solution described below (the same was employed in the following experiments) were added thereto. Subsequently, water was added to adjust the total volume of the solution to 50 ml, thereby to prepare a test solution. Meanwhile, 62.5 mg of calcium levofolinate were dissolved in water so as to prepare a 25 ml solution. Then, to 10 ml of the resultant solution were added 10 ml of the internal standard solution, and the total volume of the solution was adjusted to 50 ml by adding water, thereby to prepare a standard solution. For 20 μl of the standard solution and the test solution, the content of calcium levofolinate was measured by the liquid chromatography method under the following conditions.
# 1) Measurement Conditions • Detector: Ultraviolet absorptiometer (Measurement wavelength: 254 nm) • Column: A stainless tube having an internal diameter of 4.0 mm and a length of 15 cm was filled with 5 μm of octadecylsilylated silica gel for liquid chromatography. • Column temperature: A constant temperature near 45° C. • Mobile phase: The pH value of a mixed test solution containing 0.008 mol/L of disodium hydrogen phosphate solution/methanol/40% aqueous tetrabutylammonium hydroxide solution (385:110:1.3 (volume ratio)) was adjusted to 7.5 by adding phosphoric acid. • Flow rate: The flow rate was regulated so that the retention time of calcium levofolinate became about 10 minutes. • Internal standard solution: A solution prepared by adding water to 0.04 g of methyl parahydroxybenzoate so that the whole amount of solution is 100 ml.
# About 80 ml of water for injection were added to a beaker (volume: 200 ml). Then, 0.56 g of sodium chloride, 0.3 g of tromethamine, and 1.375 g of calcium levofolinate (1.1 g, in terms of 5-formyl-(6S)-tetrahydrofolic acid) were added to it with bubbling of nitrogen gas, and the components were dissolved with stirring (this procedure was performed 5 times). Subsequently, 0.05 g, 0.075 g, 0.1 g, 0.2 g, or 0.3 g of ascorbic acid was added to each solution, and was dissolved with stirring, to prepare five solutions. Thereafter, in the case where the addition amount of ascorbic acid is 0.05 g, 0.075 g, or 0.1 g, the pH value of each solution was regulated to 8.7 by adding 5% hydrochloric acid. In the case where the addition amount of ascorbic acid is 0.2 g, or 0.3 g, the pH value of each solution was regulated to 8.7 by adding 1% aqueous sodium hydroxide solution dropwise. Water for injection was further added to each solution to adjust the total volume of the solution to 100 ml. Subsequently, the bubbling of nitrogen gas was stopped, and each solution was filtered with a filtration filter, thereby to yield a solution for injection. Subsequently, each of five 5 ml-glass ampules the inside space of which had been substituted by nitrogen gas, was filled with 5 ml of the resultant solution for injection, and was sealed by heating.
# For each aqueous preparation obtained as above, a test evaluating stability at 60° C. was performed by measuring the remaining calcium levofolinate content by the high performance liquid chromatography method.
smiles,measurement,setting,value
"Nc1nc(=O)c2c([nH]1)NC[C@H](CNc1ccc(C(=O)N[C@@H](CCC(=O)O)C(=O)O)cc1)N2C=O [calcium levofolinate, (6S)-N-[4-[[(2-amino-5-formyl-1,4,5,6,7,8-hexahydro-4-oxo-6-pteridinyl)methyl]amino]benzoyl]-L-glutamic acid]",remaining calcium levofolinate content compared with the initial value (100),"ascorbic acid 0.05%, 1 month",84.5
same,remaining calcium levofolinate content compared with the initial value (100),"ascorbic acid 0.05%, 1 week",97.0
same,remaining calcium levofolinate content compared with the initial value (100),"ascorbic acid 0.05%, 2 weeks",92.1
same,remaining calcium levofolinate content compared with the initial value (100),"ascorbic acid 0.05%, 3 weeks",90.3
same,"calcium levofolinate content, Initial value (100)",ascorbic acid 0.05%,100
same,remaining calcium levofolinate content compared with the initial value (100),"ascorbic acid 0.075%, 1 month",85.7
same,remaining calcium levofolinate content compared with the initial value (100),"ascorbic acid 0.075%, 1 week",97.1
same,remaining calcium levofolinate content compared with the initial value (100),"ascorbic acid 0.075%, 2 weeks",91.5
same,remaining calcium levofolinate content compared with the initial value (100),"ascorbic acid 0.075%, 3 weeks",90.9
same,"calcium levofolinate content, Initial value (100)",ascorbic acid 0.075%,100
same,remaining calcium levofolinate content compared with the initial value (100),"ascorbic acid 0.1%, 1 month",84.9
same,remaining calcium levofolinate content compared with the initial value (100),"ascorbic acid 0.1%, 1 week",97.3
same,remaining calcium levofolinate content compared with the initial value (100),"ascorbic acid 0.1%, 2 weeks",92.2
same,remaining calcium levofolinate content compared with the initial value (100),"ascorbic acid 0.1%, 3 weeks",89.3
same,"calcium levofolinate content, Initial value (100)",ascorbic acid 0.1%,100
same,remaining calcium levofolinate content compared with the initial value (100),"ascorbic acid 0.2%, 1 month",83.4
same,remaining calcium levofolinate content compared with the initial value (100),"ascorbic acid 0.2%, 1 week",96.6
same,remaining calcium levofolinate content compared with the initial value (100),"ascorbic acid 0.2%, 2 weeks",91.5
same,remaining calcium levofolinate content compared with the initial value (100),"ascorbic acid 0.2%, 3 weeks",88.6
same,"calcium levofolinate content, Initial value (100)",ascorbic acid 0.2%,100
same,remaining calcium levofolinate content compared with the initial value (100),"ascorbic acid 0.3%, 1 month",82.0
same,remaining calcium levofolinate content compared with the initial value (100),"ascorbic acid 0.3%, 1 week",96.1
same,remaining calcium levofolinate content compared with the initial value (100),"ascorbic acid 0.3%, 2 weeks",90.5
same,remaining calcium levofolinate content compared with the initial value (100),"ascorbic acid 0.3%, 3 weeks",87.7
same,"calcium levofolinate content, Initial value (100)",ascorbic acid 0.3%,100

# — US20060058312A1, “Stabilized aqueous preparation for injection” (priority 2004, published 2006)
